Patent US20040175789A1, “G protein coupled receptors and dna sequences thereof” (priority 2003, published 2004)

Experiments:
[1] = molecular target: T1, orphan receptor Singlet_413 (Homo sapiens, UniProt Q8TDS5); test: Ligand fishing: transient Ca2+ signal (Flipr384, Fluo-4) in CHO-K1-CRE cells stably transfected with Singlet_413; type: cell-based; conditions: not primed
T1 construct: expressed in transfected cells
Method: (§1) Twenty-four hours before the experiment, the cells are havested, counted and seeded in 384-well plates at 10000 cells per wells and put at 37° C./5% CO2. The day of the experiment, the injection plates containing the compounds are prepared as described in the following table:
(§2) The cells are loaded with 2 μM Fluo-4 in HBSS/Hepes buffer. After one hour incubation at 37° C./5% CO2, the cells are washed with HBSS/Hepes containing 2.5 mM probenecid (2 wash cycles+volume adjustment are performed). Plates that will be primed with ATP are adjusted to 20 μl final volume and plates that will directly receive the compounds are adjusted to 40 μl final volume. Four assay plates are primed with 20 μl ATP at 20 μM initial (10 μM final concentration) and are incubated at room temperature for 30 minutes. Compounds plates at 3 times the final concentration are then injected with the Flipr pipettor on both primed and not primed plates. The Flipr laser is setup on 0.6 watt, the exposure length at 0.4 sec. […] A 10 seconds baseline is recorded prior compounds injection. After the injection, the signal is recorded every second for one minute. Then, signal decay is measured for 20 additional seconds. Two statistics are exported: Fbasal and Fmax. For each well, a dF/F value is expressed with the following formula: (Fmax−Fbasal)/Fbasal is the basal fluorescence prior compound injection and Fmax is the peak value of the kinetic.

Contig 88:1 = test: Selectivity check: Ca2+ signal (Flipr) in CHO-CRE cells transfected with Contig 88:1; type: cell-based, human; conditions: not primed
Method: as §1, §2
(§3) These compounds are also tested against wild type cells and other transfected cells in order to check the selectivity.

CHO-K1 (CHO-CRE) cells = test: Selectivity check: Ca2+ signal (Flipr) in CHO-CRE CHO-K1 cells without receptor; type: cell-based; conditions: not primed
Method: as §1, §2, §3

CHO-K1-ATCC cells = test: Selectivity check: Ca2+ signal (Flipr) in wild type CHO-K1-ATCC cells; type: cell-based; conditions: for dF/F (Fmax−Fbasal)/Fbasal, CHO-K1-ATCC, np: not primed
Method: as §1, §2, §3

T1 sequence (Q8TDS5 whole entry): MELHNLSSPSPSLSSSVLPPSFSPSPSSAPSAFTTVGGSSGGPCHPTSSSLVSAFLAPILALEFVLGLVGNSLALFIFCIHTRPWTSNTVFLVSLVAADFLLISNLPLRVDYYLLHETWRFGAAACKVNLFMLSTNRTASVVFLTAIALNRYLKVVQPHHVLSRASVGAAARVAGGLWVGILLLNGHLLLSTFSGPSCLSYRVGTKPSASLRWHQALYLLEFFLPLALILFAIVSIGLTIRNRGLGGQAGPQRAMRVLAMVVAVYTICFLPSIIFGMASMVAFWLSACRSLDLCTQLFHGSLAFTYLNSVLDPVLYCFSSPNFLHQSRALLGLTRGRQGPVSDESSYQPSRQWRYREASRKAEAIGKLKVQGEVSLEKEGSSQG

Row | dF/F (Fmax−Fbasal)/Fbasal, CHO-CRE Singlet_413, np [1] | Compound | dF/F (Fmax−Fbasal)/Fbasal, CHO-CRE Contig 88:1, np (Contig 88:1) | dF/F (Fmax−Fbasal)/Fbasal, CHO-CRE CHO-K1, np (CHO-K1 (CHO-CRE) cells) | dF/F (Fmax−Fbasal)/Fbasal, CHO-K1-ATCC, np (CHO-K1-ATCC cells) | activity (Ca2+ signal) on the non-transfected cells (CHO-K1-ATCC cells; non-transfected cells)
1 | 0.01 | CCCCC/C=C\C/C=C\C/C=C\C=C\[C@@H](O)CCCC(=O)O (racemic) [Cpd 2, (±)5-HETE] | 0.01 | −0.05 | 0.02 | 
2 | 0.03 | CCCCCCCC/C=C\C/C=C\C=C\C(O)CCCC(=O)O (racemic) [Cpd 4, (±)5-HETrE] | 0.01 | −0.01 | 0.01 | 
3 | 0.03 | CC/C=C\C/C=C\C/C=C\C/C=C\C=C\C(O)CCCC(=O)O (racemic) [Cpd 5, (±)5-HEPE] | 0.01 | −0.04 | 0.03 | 
4 | 0.01 | CCCCC/C=C\C[C@@H](O)/C=C/C=C/C=C/[C@@H](O)CCCC(=O)O (relative stereo) [Cpd 8, 5(S), 12(R)-DIHETE all trans] | 0.01 | −0.04 | 0.02 | 
5 | 0.01 | CCCCC/C=C\C/C=C\C/C=C\C=C\[C@@H](O)CCCC(=O)O [Cpd 1, 5(S)-HETE] | 0.00 | −0.02 | 0.02 | 
6 | 0.00 | CCCCC/C=C\C=C\[C@@H](O)C/C=C\C/C=C\CCCC(=O)O [Cpd 3, 11(S)-HETE] | 0.00 | −0.03 | −0.04 | 
7 | 0.02 | CCCCC/C=C\C[C@@H]1O[C@H]1C(O)/C=C\C/C=C\CCCC(=O)O (stereo partly shown) [Cpd 7, HEPOXILIN B3] | 0.00 | −0.01 | 0.01 | 
8 | 0.02 | CCCCC/C=C\CC1OC1C/C=C\C/C=C\CCCC(=O)O (stereo not shown) [Cpd 9, 11,12-EPOXYEICOSATRIENOIC ACID] | 0.02 | −0.02 | 0.00 | 
9 | 0.01 | CCCCC/C=C\C/C=C\C/C=C\C=C\C(=O)CCCC(=O)O [Cpd 10, 5-KETOEICOSATETRAENOIC ACID] | 0.00 | −0.05 | 0.04 | not active
10 | −0.01 | CCCCC/C=C\C/C=C\C/C=C\C/C=C\CCCC(=O)OC(CO)COC(=O)CCCCCCCCCCCCCCCCC (stereo not shown) [Cpd 11, 1-STEAROYL-2-ARACHIDONOYL-GLYCEROL] | −0.01 | −0.05 | 0.01 | 
11 | 0.05 | CC/C=C\C/C=C\C/C=C\C/C=C\C/C=C\CCCC(=O)O [Cpd 12, EICOSAPENTAENOIC ACID (20:5 n-3)] | 0.03 | −0.04 | 0.02 | 
12 | 0.11 | OCCN(CCO)c1nc(N2CCCCC2)c2nc(N(CCO)CCO)nc(N3CCCCC3)c2n1 [Cpd 15, Dipyridamole] | 0.39 | −0.04 | 0.38 | 

Row | Compound | dF/F (Fmax−Fbasal)/Fbasal, CHO-CRE Singlet_413, np [1] | dF/F (Fmax−Fbasal)/Fbasal, CHO-CRE Contig 88:1, np (Contig 88:1) | dF/F (Fmax−Fbasal)/Fbasal, CHO-CRE CHO-K1, np (CHO-K1 (CHO-CRE) cells) | dF/F (Fmax−Fbasal)/Fbasal, CHO-K1-ATCC, np (CHO-K1-ATCC cells) | activity (Ca2+ signal) on the non-transfected cells (CHO-K1-ATCC cells; non-transfected cells)
13 | CCCCC/C=C\C/C=C\C/C=C\C=C\[C@H](CCCC(=O)O)OO [Cpd 6, 5(S)-HPETE] | 0.01 | 0.00 | −0.01 | 0.03 | 
14 | CCCCC/C=C\C/C=C\C/C=C\C/C=C\CCCC(=O)O [Cpd 13, ARACHIDONIC ACID (20:4 n-6)] | 0.03 | 0.02 | −0.05 | 0.01 | 
15 | CCCCC/C=C\C/C=C\C/C=C\C/C=C\CCCC(=O)OC(CO)CO [Cpd 14, 2-ARACHIDONOYLGLYCEROL] | 0.02 | 0.00 | −0.05 | 0.00 | 
